The values that follow come from patent US9969746B2, “Opioid compounds and their uses” (THE UNIVERSITY OF BATH, priority 2013, dated 2018).

For orientation: Ki means a measure of affinity in units of concentration, obtained from inhibition or displacement. Low values mean a stronger hold on the target, high ones a looser hold on the target.

Experiment [1] has as its target T1, NOP (Homo sapiens, UniProt P41146).
T1 construct: expressed in transfected cells; host or cells: CHO cells (membranes)
The experiment is described as follows: Binding affinity to human NOP receptor transfected into CHO cells ([3H]N/OFQ).

Experiment [2] concerns the target T2, MOP (Homo sapiens, UniProt P35372).
T2 construct: expressed in transfected cells; host or cells: CHO cells (membranes)
In words: biochemical. It is filed as binding. Conditions: [3H]DAMGO, membranes of CHO cells with human receptor.

A further experiment addresses T3, KOP (Homo sapiens, UniProt P41145).
T3 construct: expressed in transfected cells; host or cells: CHO cells (membranes)
The experiment is described as follows: biochemical. The class given is binding. The note with it: [3H]U69593, membranes of CHO cells with human receptor.

The target of experiment [3] is T2, MOP. The experiment is described as follows: [35S]GTPγS binding, MOP. It is filed as biochemical. The note with it: 1 h; read-out: % stim MOP. The procedure: (§1) [^35S]GTPγS binding was conducted basically as described by Traynor and Nahorski (Traynor et al., 1995). Cells were scraped from tissue culture dishes into 20 mM Hepes, 1 mM EDTA, then centrifuged at 500×g for 10 min. Cells were resuspended in this buffer and homogenized using a Polytron Homogenizer. The homogenate was centrifuged at 27,000×g for 15 min, and the pellet re suspended in Buffer A, containing: 20 mM Hepes, 10 mM MgCl2, 100 mM NaCl, pH 7.4. The suspension was re centrifuged at 27,000×g and suspended once more in Buffer A. For the binding assay, membranes (8-15 μg protein) were incubated with [^35S]GTPγS (50 pM), GDP (10 μM), and the appropriate compound, in a total volume of 1.0 ml, for 60 min at 25′C. Samples were filtered over glass fiber filters and counted as described for the binding assays. Statistical analysis was conducted using the program Prism®.
(In general: Binding of GTPγS marks nucleotide exchange on a G protein.)

The target in experiment [4] is T1, NOP. The experiment is described as follows: [35S]GTPγS binding, NOP. It is filed as biochemical. Conditions: 1 h; read-out: % stim NOP. The method, then: as §1
For a further experiment, the target named is T4, KOPr (Homo sapiens, UniProt P41145).
T4 construct: expressed in transfected cells
In words: [35S]GTPγS binding, KOPr. It is filed as biochemical. The method, then:
as §1

T4 sequence (P41145 whole entry): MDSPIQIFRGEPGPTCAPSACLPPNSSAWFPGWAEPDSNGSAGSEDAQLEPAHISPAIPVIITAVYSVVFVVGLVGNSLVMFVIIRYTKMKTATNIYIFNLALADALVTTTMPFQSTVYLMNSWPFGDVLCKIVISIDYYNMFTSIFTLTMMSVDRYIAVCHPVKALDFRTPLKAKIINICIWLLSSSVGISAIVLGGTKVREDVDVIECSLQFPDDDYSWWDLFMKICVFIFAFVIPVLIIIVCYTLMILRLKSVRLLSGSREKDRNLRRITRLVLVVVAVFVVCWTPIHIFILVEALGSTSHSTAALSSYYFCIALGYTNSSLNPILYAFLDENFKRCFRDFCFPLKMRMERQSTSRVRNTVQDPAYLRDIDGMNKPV
T3 sequence (P41145 whole entry): as above
T2 sequence (P35372 whole entry): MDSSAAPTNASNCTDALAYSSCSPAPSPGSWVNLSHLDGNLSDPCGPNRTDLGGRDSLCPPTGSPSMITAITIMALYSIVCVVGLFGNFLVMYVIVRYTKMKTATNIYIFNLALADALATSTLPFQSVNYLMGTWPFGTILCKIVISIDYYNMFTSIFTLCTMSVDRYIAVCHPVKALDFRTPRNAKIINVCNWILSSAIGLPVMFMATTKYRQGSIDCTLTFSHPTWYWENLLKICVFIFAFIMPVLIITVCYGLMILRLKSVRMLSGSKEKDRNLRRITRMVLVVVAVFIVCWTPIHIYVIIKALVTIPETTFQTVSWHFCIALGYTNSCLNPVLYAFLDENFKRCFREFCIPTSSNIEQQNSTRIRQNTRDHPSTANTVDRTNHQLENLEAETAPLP
T1 sequence (P41146 whole entry): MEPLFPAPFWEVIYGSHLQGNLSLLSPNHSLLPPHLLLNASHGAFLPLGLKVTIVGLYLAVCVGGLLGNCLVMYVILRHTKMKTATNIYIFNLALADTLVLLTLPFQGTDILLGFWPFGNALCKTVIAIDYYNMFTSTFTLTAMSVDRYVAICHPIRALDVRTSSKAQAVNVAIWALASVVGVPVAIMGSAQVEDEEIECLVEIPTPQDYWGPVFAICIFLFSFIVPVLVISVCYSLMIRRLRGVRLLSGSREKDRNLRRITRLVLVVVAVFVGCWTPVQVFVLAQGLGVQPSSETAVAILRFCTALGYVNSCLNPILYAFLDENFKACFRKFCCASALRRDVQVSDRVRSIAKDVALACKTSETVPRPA

As for `Cc1ccccc1CC(=O)O[C@@]12CCC(=O)[C@@H]3Oc4c(O)ccc5c4[C@@]31CCN(CC1CC1)C2C5` [Compound 3, 14β-(2′-methylphenylacetyl)-17-cyclopropylmethyl-7,8-dihydronoroxymorphinone], the Ki at NOP [1] is 44.1 ± 3.1 nM; on MOP [2], 3.59 ± 0.86 nM; at KOP, 1.69 ± 1.2 nM. The Emax on MOP [3] is 42%; at NOP [4], 21%.
As to `COc1ccc(CCC(=O)O[C@@]23CCC(=O)[C@@H]4Oc5c(O)ccc6c5[C@@]42CCN(CC2CC2)C3C6)cc1` [Compound 12, 14β-(4′-methoxyphenylpropanoyl)-17-cyclopropylmethyl-7,8-dihydronoroxymorphinone], the Ki at NOP [1] was 766 ± 177 nM; on MOP [2], 0.91 ± 0.12 nM; on KOP it was 1.96 ± 0.04 nM. At NOP [4], the Emax amounted to 52%. For the same compound, the “stimulation of the KOPr” value on KOPr was “no stimulation”.
On to `O=C(Cc1ccc(Cl)cc1)O[C@@]12CCC(=O)[C@@H]3Oc4c(O)ccc5c4[C@@]31CCN(CC1CC1)C2C5` [Compound 9, 14β-(4′-chlorophenylacetyl)-17-cyclopropylmethyl-7,8-dihydronoroxymorphinone], for which the Ki at NOP [1] was 51.3 ± 14 nM; at MOP [2], 1.78 ± 0.03 nM; on KOP it was 3.95 ± 0.59 nM. Besides, the figures for the Emax at MOP [3] and at NOP [4] were 8.2% and 19%, respectively.
Consider `COc1cccc(CC(=O)O[C@@]23CCC(=O)[C@@H]4Oc5c(O)ccc6c5[C@@]42CCN(CC2CC2)C3C6)c1` [Compound 5, 14β-(3′-methoxyphenylacetyl)-17-cyclopropylmethyl-7,8-dihydronoroxymorphinone], for which the values for the Ki at NOP [1], on MOP [2] and on KOP were 50.1 ± 2.7 nM, 1.1 ± 0.08 nM and 1.44 ± 0.33 nM, respectively. Besides, the results for the Emax at MOP [3] and at NOP [4] were 11% and 36%, respectively.
For `O=C(Cc1ccccc1Cl)O[C@@]12CCC(=O)[C@@H]3Oc4c(O)ccc5c4[C@@]31CCN(CC1CC1)C2C5` [Compound 10, 14β-(2′-chlorophenylacetyl)-17-cyclopropylmethyl-7,8-dihydronoroxymorphinone], the Ki on NOP [1] worked out at 32.6 ± 2.3 nM; on MOP [2], 4.66 ± 1.8 nM; at KOP, 1.34 ± 0.5 nM. The Emax at MOP [3] came to 39%; on NOP [4] it was 50%.
For `O=C(Cc1ccccc1F)O[C@@]12CCC(=O)[C@@H]3Oc4c(O)ccc5c4[C@@]31CCN(CC1CC1)C2C5` [Compound 8, 14β-(2′-fluorophenylacetyl)-17-cyclopropylmethyl-7,8-dihydronoroxymorphinone], the values for the Ki at NOP [1], on MOP [2] and at KOP were 69.7 ± 2.4 nM, 2.59 ± 1.1 nM and 4.55 ± 0.7 nM, respectively. The Emax on MOP [3] was 28%; at NOP [4], 15%.
For `O=C(Cc1ccccc1)O[C@@]12CCC(=O)[C@@H]3Oc4c(O)ccc5c4[C@@]31CCN(CC1CC1)C2C5` [Compound 1, 14β-phenylacetyl-17-cyclopropylmethyl-7,8-dihydronoroxmorphinone], in that order: 127 ± 17 nM, 0.86 ± 0.18 nM, 1.14 ± 0.46 nM, 32% and 28%.
In the same order, the values of `Cc1ccccc1CCC(=O)O[C@@]12CCC(=O)[C@@H]3Oc4c(O)ccc5c4[C@@]31CCN(CC1CC1)C2C5` [Compound 19, 14β-(2′-methylphenylpropanoyl)-17-cyclopropylmethyl-7,8-dihydronoroxymorphinone] are 12.1 ± 2.7 nM, 0.56 ± 0.11 nM, 0.64 ± 0.1 nM, 48% and 33%.
Take `COc1ccccc1CCC(=O)O[C@@]12CCC(=O)[C@@H]3Oc4c(O)ccc5c4[C@@]31CCN(CC1CC1)C2C5` [Compound 14, 14β-(2′-methoxyphenylpropanoyl)-17-cyclopropylmethyl-7,8-dihydronoroxymorphinone]: the Ki at NOP [1] worked out at 120 ± 20.5 nM; on MOP [2], 1.67 ± 0.42 nM; at KOP, 1.24 ± 0.11 nM. Also, on NOP [4], the Emax turned out to be 56%. Besides, at KOPr, the “stimulation of the KOPr” value is given as “no stimulation”.
For the compound `COc1ccccc1CC(=O)O[C@@]12CCC(=O)[C@@H]3Oc4c(O)ccc5c4[C@@]31CCN(CC1CC1)C2C5` [Compound 7, 14β-(2′-methoxyphenylacetyl)-17-cyclopropylmethyl-7,8-dihydronoroxmorphinone], the Ki amounted to 62.3 ± 4.9 nM on NOP [1], 3.77 ± 0.9 nM on MOP [2] and 3.52 ± 0.9 nM at KOP. Besides, the figures for the Emax on MOP [3] and on NOP [4] were 37% and 41%, respectively.
On to `Cc1ccc(CCC(=O)O[C@@]23CCC(=O)[C@@H]4Oc5c(O)ccc6c5[C@@]42CCN(CC2CC2)C3C6)cc1` [Compound 18, 14β-(4′-methylphenylpropanoyl)-17-cyclopropylmethyl-7,8-dihydronoroxymorphinone], for which the inhibitory constant (Ki) stood at 35.8 ± 1.6 nM on NOP [1], 0.78 ± 0.22 nM on MOP [2] and 1.06 ± 0.4 nM on KOP. Moreover, the results for the Emax on MOP [3] and at NOP [4] were 25% and 63%, respectively.
For `Cc1ccc(CC(=O)O[C@@]23CCC(=O)[C@@H]4Oc5c(O)ccc6c5[C@@]42CCN(CC2CC2)C3C6)cc1` [Compound 2, 14β-(4′-methylphenylacetyl)-17-cyclopropylmethyl-7,8-dihydronoroxymorphinone], the figures for the Ki at NOP [1], at MOP [2] and at KOP were 36.3 ± 4.2 nM, 1.87 ± 0.09 nM and 1.56 ± 0.28 nM, respectively. The Emax stood at 35% at MOP [3] and 22% on NOP [4].
On to `COc1cccc(CCC(=O)O[C@@]23CCC(=O)[C@@H]4Oc5c(O)ccc6c5[C@@]42CCN(CC2CC2)C3C6)c1` [Compound 13, 14β-(3′-methoxyphenylpropanoyl)-17-cyclopropylmethyl-78-dihydronoroxymorphinone], for which the results for the Ki on NOP [1], on MOP [2] and at KOP were 154 ± 11.5 nM, 1.14 ± 0.18 nM and 1.24 ± 0.15 nM, respectively. The Emax at NOP [4] amounted to 46%. Also, on KOPr, the “stimulation of the KOPr” value is recorded as “no stimulation”.
As to `O=C(CCc1cccc(Cl)c1)O[C@@]12CCC(=O)[C@@H]3Oc4c(O)ccc5c4[C@@]31CCN(CC1CC1)C2C5` [Compound 17, 14β-(3′-chlorophenylpropanoyl)-17-cyclopropylmethyl-7,8-dihydronoroxymorphinone], the figures for the Ki on NOP [1], at MOP [2] and at KOP were 27 ± 4.9 nM, 0.39 ± 0.07 nM and 0.74 ± 0.05 nM, respectively. Further, the Emax turned out to be 26% on MOP [3] and 22% at NOP [4]. Further, the “stimulation of the KOPr” value on KOPr is on record as “no stimulation”.
On to `Cc1cccc(CCC(=O)O[C@@]23CCC(=O)[C@@H]4Oc5c(O)ccc6c5[C@@]42CCN(CC2CC2)C3C6)c1` [Compound 15, 14β-(3′-methylphenylpropanoyl)-17-cyclopropylmethyl-7,8-dihydronoroxymorphinone], for which the Ki came out at 37.7 ± 2.6 nM on NOP [1], 0.91 ± 0.1 nM at MOP [2] and 1.56 ± 0.2 nM on KOP. For the same compound, the Emax at MOP [3] was determined as 23%.
Turning to `O=C(Cc1ccc2c(c1)OCO2)O[C@@]12CCC(=O)[C@@H]3Oc4c(O)ccc5c4[C@@]31CCN(CC1CC1)C2C5` [Compound 6, 14β-(3′,4′-dioxymethylenephenylacetyl)-7-cyclopropylmethyl-7,8-dihydronoroxymorphinone], the Ki came to 94.3 ± 28 nM on NOP [1], 0.99 ± 0.35 nM on MOP [2] and 1.2 ± 0.42 nM at KOP. Moreover, the figures for the Emax at MOP [3] and at NOP [4] were 12% and 44%, respectively.
Regarding `Cc1cccc(CC(=O)O[C@@]23CCC(=O)[C@@H]4Oc5c(O)ccc6c5[C@@]42CCN(CC2CC2)C3C6)c1` [Compound 4], the results for the Ki at NOP [1], on MOP [2] and at KOP were 49.9 ± 3.5 nM, 1.91 ± 0.51 nM and 2.8 ± 0.91 nM, respectively. Also, the Emax was 40% at MOP [3] and 59% on NOP [4].
As for `O=C(CCc1ccc(Cl)cc1)O[C@@]12CCC(=O)[C@@H]3Oc4c(O)ccc5c4[C@@]31CCN(CC1CC1)C2C5` [Compound 16, 14β-(4′-chlorophenylpropanoyl)-17-cyclopropylmethyl-7,8-dihydronoroxymorphinone], the results for the Ki at NOP [1], at MOP [2] and on KOP were 45.2 ± 17.5 nM, 0.54 ± 0.11 nM and 1.34 ± 0.12 nM, respectively. Besides, the figures for the Emax at MOP [3] and on NOP [4] were 21% and 41%, respectively. Further, the “stimulation of the KOPr” value on KOPr is given as “no stimulation”.
